Results as given in patent US11208412B2 (DAEGU-GYEONGBUK MEDICAL INNOVATION FOUNDATION, priority 2017, dated 2021).

Legend:
Experiment in all cases: Kinase selectivity, DiscoverX scanMAX Kinase assay panel (% control)
Format in all cases: binding
[1] = molecular target: T1, kinases of the scanMAX Kinase assay panel (Homo sapiens, UniProt P41743); settings: PRKCI; 1 uM
T1 construct: purchased DiscoverX Co. (contract measurement) scanMAX Kinase assay panel
T1 sequence (P41743 1-596): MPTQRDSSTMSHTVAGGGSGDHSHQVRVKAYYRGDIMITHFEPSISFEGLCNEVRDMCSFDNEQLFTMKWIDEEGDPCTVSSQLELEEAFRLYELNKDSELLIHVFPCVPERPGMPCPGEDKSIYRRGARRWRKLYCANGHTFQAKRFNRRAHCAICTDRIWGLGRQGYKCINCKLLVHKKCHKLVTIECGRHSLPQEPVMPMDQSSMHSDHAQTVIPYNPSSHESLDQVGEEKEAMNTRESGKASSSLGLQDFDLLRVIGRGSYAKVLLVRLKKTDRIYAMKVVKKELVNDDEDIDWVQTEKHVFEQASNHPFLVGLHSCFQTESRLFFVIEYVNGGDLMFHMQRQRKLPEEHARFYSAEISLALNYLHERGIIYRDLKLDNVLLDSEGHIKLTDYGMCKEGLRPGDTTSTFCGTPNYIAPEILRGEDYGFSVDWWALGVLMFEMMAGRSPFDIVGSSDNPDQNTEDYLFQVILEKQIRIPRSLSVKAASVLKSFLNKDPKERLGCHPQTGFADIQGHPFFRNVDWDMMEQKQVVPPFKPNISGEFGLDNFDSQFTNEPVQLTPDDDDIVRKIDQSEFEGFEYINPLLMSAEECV
In short: (§1)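 Read-out is % control, normalised so a positive-control compound sits at 0% and DMSO at 100%: (test − positive)/(negative − positive)×100. Each kinase received the compound at 1 uM in DMSO. A value below 35% counts as activity.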

[2] = molecular target: T2, kinases of the scanMAX Kinase assay panel (Homo sapiens, UniProt P57058); settings: HUNK; 1 uM
T2 construct: purchased DiscoverX Co. (contract measurement) scanMAX Kinase assay panel
T2 sequence (P57058 1-714): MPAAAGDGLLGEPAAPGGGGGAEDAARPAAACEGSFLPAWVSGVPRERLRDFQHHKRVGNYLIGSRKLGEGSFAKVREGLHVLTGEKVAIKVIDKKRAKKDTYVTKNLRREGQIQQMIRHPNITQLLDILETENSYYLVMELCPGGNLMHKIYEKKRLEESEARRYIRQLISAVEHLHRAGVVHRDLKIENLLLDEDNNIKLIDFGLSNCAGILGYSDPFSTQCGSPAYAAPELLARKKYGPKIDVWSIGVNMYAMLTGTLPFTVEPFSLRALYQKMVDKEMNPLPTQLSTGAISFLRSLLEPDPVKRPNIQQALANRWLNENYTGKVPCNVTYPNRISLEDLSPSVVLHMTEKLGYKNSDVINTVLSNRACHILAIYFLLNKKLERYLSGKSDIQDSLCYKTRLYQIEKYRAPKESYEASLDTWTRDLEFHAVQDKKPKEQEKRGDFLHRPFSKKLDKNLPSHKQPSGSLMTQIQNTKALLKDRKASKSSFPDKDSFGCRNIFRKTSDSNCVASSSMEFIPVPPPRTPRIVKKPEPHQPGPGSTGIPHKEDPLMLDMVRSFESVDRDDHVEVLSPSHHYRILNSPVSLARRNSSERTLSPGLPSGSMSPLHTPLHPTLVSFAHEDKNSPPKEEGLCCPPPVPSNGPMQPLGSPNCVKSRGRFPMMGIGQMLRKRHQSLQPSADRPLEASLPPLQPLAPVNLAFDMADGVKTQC
In short: as §1

[3] = molecular target: T3, kinases of the scanMAX Kinase assay panel (Homo sapiens, UniProt P35968); settings: kinase VEGFR2; 1 uM in DMSO
T3 construct: purchased DiscoverX Co. (contract measurement) scanMAX Kinase assay panel
T3 sequence (P35968 20-1356): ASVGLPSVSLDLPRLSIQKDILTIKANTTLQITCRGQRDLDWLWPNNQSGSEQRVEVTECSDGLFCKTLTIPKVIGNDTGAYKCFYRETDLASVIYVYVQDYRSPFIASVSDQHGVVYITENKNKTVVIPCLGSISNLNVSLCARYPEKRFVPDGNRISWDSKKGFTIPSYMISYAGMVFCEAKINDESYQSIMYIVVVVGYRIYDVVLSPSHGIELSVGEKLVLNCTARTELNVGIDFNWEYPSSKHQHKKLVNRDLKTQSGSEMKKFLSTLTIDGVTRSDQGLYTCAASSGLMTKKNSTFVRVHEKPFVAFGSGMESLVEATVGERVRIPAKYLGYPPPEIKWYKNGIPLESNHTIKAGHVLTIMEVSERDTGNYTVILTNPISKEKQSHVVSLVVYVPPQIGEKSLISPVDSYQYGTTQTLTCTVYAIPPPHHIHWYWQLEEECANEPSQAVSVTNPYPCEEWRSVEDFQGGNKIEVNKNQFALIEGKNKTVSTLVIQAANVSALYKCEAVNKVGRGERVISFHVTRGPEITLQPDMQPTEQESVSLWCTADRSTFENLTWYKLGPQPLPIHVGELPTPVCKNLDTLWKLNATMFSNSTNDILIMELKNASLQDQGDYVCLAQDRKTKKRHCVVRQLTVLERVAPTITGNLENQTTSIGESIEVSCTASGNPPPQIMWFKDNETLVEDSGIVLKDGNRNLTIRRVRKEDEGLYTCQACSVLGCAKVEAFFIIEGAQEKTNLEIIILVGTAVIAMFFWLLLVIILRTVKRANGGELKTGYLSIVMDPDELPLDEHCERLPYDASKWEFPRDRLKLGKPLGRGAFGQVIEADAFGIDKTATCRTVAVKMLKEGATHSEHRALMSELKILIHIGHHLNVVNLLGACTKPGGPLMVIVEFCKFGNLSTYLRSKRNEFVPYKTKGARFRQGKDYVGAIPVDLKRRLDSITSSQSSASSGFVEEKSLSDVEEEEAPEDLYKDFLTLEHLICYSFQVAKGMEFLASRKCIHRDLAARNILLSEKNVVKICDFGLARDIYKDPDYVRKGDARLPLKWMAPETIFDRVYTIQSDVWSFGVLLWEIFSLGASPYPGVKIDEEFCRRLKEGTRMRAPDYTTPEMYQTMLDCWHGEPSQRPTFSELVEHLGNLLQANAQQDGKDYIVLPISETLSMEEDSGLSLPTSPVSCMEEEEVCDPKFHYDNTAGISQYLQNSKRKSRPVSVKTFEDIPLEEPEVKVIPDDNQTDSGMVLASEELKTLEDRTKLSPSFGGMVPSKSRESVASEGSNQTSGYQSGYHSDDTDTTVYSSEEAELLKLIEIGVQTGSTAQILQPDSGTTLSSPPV
In short: as §1

[4] = molecular target: T4, kinases of the scanMAX Kinase assay panel (Homo sapiens, UniProt Q05397); settings: FAK; 1 uM
T4 construct: purchased DiscoverX Co. (contract measurement) scanMAX Kinase assay panel
T4 sequence (Q05397 whole entry): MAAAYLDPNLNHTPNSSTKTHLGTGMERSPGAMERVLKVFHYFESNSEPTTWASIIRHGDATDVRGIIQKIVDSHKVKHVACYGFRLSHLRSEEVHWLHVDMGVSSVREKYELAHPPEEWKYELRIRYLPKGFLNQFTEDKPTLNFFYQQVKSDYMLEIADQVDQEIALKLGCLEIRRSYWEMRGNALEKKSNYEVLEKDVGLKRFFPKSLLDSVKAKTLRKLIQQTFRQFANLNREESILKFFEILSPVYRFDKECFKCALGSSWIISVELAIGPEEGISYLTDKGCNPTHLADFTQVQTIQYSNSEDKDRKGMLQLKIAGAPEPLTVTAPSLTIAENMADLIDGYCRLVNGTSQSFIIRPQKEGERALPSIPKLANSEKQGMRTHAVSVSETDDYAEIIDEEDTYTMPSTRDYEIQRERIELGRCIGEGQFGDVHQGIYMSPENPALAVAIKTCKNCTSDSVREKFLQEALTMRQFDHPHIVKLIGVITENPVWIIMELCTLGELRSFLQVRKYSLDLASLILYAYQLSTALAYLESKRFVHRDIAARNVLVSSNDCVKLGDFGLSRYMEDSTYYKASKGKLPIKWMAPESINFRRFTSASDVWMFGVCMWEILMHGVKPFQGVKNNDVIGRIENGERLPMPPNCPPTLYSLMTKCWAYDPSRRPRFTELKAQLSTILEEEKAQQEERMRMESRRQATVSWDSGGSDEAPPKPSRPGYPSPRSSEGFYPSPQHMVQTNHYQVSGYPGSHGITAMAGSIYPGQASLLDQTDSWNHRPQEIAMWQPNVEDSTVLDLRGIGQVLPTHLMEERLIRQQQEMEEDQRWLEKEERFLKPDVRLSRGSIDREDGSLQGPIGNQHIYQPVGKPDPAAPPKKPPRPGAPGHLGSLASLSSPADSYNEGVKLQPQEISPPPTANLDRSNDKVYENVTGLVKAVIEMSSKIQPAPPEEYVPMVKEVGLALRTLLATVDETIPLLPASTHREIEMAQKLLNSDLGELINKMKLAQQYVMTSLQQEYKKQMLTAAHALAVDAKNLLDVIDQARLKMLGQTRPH
In short: as §1

[5] = molecular target: T5, kinases of the scanMAX Kinase assay panel (Homo sapiens, UniProt Q96Q40); settings: PFTAIRE2; 1 uM
T5 construct: purchased DiscoverX Co. (contract measurement) scanMAX Kinase assay panel
T5 sequence (Q96Q40 whole entry): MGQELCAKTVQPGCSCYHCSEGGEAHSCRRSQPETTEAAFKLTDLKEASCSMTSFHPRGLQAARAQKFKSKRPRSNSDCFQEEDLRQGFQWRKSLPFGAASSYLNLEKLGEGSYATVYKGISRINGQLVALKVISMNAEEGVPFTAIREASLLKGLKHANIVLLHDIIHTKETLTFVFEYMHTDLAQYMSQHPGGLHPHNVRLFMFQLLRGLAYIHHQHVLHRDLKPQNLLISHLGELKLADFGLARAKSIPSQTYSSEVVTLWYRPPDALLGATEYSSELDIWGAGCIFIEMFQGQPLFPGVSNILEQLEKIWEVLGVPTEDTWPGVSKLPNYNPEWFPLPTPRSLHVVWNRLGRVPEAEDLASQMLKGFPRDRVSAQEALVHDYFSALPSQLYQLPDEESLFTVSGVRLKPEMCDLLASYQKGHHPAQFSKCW
In short: as §1

[6] = molecular target: T6, kinases of the scanMAX Kinase assay panel (Homo sapiens, UniProt Q16832); settings: DDR2; 1 uM
T6 construct: purchased DiscoverX Co. (contract measurement) scanMAX Kinase assay panel
T6 sequence (Q16832 22-855): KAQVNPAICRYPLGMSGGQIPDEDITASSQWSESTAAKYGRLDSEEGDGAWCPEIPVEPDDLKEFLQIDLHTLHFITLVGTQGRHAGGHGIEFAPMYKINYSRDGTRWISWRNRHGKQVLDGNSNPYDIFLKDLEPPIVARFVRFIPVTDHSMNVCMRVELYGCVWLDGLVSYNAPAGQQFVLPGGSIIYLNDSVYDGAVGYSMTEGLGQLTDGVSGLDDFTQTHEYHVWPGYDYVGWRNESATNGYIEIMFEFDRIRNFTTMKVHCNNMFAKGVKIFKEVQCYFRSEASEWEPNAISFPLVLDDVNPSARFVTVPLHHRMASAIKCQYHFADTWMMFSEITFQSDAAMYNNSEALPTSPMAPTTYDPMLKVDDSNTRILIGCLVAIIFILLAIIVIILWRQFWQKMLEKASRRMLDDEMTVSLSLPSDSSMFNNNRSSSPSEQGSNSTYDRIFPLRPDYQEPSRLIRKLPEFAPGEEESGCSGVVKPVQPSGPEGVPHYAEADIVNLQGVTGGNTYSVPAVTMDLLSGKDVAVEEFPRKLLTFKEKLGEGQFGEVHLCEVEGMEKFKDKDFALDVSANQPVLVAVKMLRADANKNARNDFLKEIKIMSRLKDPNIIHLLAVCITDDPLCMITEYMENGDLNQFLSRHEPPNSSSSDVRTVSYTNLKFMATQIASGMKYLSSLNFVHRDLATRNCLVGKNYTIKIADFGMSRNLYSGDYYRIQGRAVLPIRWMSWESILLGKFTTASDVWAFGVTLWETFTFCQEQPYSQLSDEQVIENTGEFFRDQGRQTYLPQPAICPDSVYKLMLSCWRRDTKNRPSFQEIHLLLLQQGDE
In short: as §1

Row | SMILES | remaining binding at 1 µM [1] | remaining binding at 1 µM [2] | remaining binding at 1 µM [3] | remaining binding at 1 µM [4] | remaining binding at 1 µM [5] | remaining binding at 1 µM [6]
1 | CC1(Nc2nc(Nc3cnn([C@H]4CCN(C5COC5)C[C@@H]4F)c3Cl)nc3[nH]cc(C#N)c23)CC1 [Example 52, 2-((5-chloro-1-((3S,4S)-3-fluoro-1-(oxetane-3-yl)piperidine-4-yl)-1H-pyrazole-4-yl)amino)((1-methylcyclopropyl)amino)-7H-pyrrolo[2,3-d]pyrimidine-5-carbonitrile] | 89% | 51% | 3.7% | 0.3% | 90% | 20%
2 | CNc1nc(Nc2ccc(C(=O)N3CCOCC3)cc2OC)nc2[nH]cc(C#N)c12 [Example 1, 2-((2-methoxy-4-(morpholine-4-carbonyl)phenyl)amino)-4-(methylamino)-7H-pyrrolo[2,3-d]pyrimidine-5-carbonitrile] | 96% | 5.3% | 63% | 55% | 97% | 96%
3 | CCNc1nc(Nc2ccc(C(=O)N3CCC(N4CCOCC4)CC3)cc2OC)nc2[nH]cc(C(F)(F)F)c12 [Example 104, (4-((4-(ethylamino)-5-(trifluoromethyl)-7H-pyrrolo[2,3-d]pyrimidine-2-yl)amino)-3-methoxyphenyl)(4-morpholinopiperidine-1-yl)methanone] | 53% | 0.7% | 73% | 3.8% | 99% | 100%
